≈ marks a conversion by molar mass, not a printed value.
What was measured:
[1] = tested on: Acinetobacter baumannii NCTC 13420; experiment: MIC, broth microdilution (CLSI) versus planktonic bacteria; format: cell-based; settings: NCTC13420; Acinetobacter baumannii NCTC 13420; 16-20 h; mode of three independent experiments; read-out: MIC, Ab NCTC 13420
[2] = tested on: Acinetobacter baumannii ATCC 19606; experiment: as above; format: cell-based; settings: ATCC19606; Acinetobacter baumannii ATCC 19606; 16-20 h; mode of three independent experiments; read-out: MIC, Ab ATCC 19606
[3] = tested on: Enterobacter cloacae NCTC 13406; experiment: as above; format: cell-based; settings: NCTC13406; Enterobacter cloacae NCTC 13406; 16-20 h; mode of three independent experiments; read-out: MIC, Ecl NCTC 13406
[4] = tested on: Escherichia coli ATCC 25922; experiment: as above; format: cell-based; settings: ATCC25922; Escherichia coli ATCC 25922; 16-20 h; mode of three independent experiments; read-out: MIC, Ec ATCC 25922
E. coli ATCC BAA-2452 = experiment: as above; format: cell-based; settings: Escherichia coli ATCC BAA-2452; 16-20 h; mode of three independent experiments; read-out: MIC, Ec ATCC BAA 2452
E. coli NCTC 13476 = experiment: as above; format: cell-based; settings: NCTC13476; Escherichia coli NCTC 13476; 16-20 h; mode of three independent experiments; read-out: MIC, Ec NCTC 13476
E. coli MG1655 = experiment: as above; format: cell-based, Escherichia coli; settings: Escherichia coli, MG1655, read-out: MIC, Ec MG1655 WT
[5] = tested on: Haemophilus influenzae ATCC 49247; experiment: as above; format: cell-based; settings: ATCC49247; Haemophilus influenzae ATCC 49247; 16-20 h; mode of three independent experiments; read-out: MIC, Hi ATCC 49247
[6] = tested on: Mycobacterium smegmatis ATCC 19420; experiment: as above; format: cell-based; settings: Mycolicibacterium smegmatis, ATCC19420, 16-20 h, mode of three independent experiments, read-out: MIC, Ms ATCC 19420
[7] = tested on: Neisseria meningitidis ATCC 13090; experiment: as above; format: cell-based; settings: ATCC13090, 16-20 h, mode of three independent experiments
[8] = tested on: Pseudomonas aeruginosa ATCC 27853; experiment: as above; format: cell-based; settings: ATCC27853; Pseudomonas aeruginosa ATCC 27853; 16-20 h; mode of three independent experiments; read-out: MIC, Pa ATCC 27853
[9] = tested on: Staphylococcus aureus ATCC 29213; experiment: as above; format: cell-based; settings: ATCC29213; Staphylococcus aureus ATCC 29213; 16-20 h; mode of three independent experiments; read-out: MIC, Sa ATCC 29213
[10] = tested on: Streptococcus pneumoniae ATCC 49619; experiment: as above; format: cell-based; settings: ATCC49619; Streptococcus pneumoniae ATCC 49619; 16-20 h; mode of three independent experiments; read-out: MIC, Sp ATCC 49619
E. coli MG1655 S83L = format: cell-based, Escherichia coli; settings: compared to the isogenic parent strain E. coli MG1655; S83L mutation on DNA gyrase subunit GyrA
E. coli MG1655 D87G = format: cell-based, Escherichia coli; settings: compared to the isogenic parent strain E. coli MG1655; D87G mutation on DNA gyrase subunit GyrA
[11] = tested on: human hepatic cell line (HepG2 ATCC HB-8065); experiment: Human cell viability assay (CellTiter-Glo); settings: Homo sapiens, HepG2, 24 h, read-out: IC50 (μg/mL) HepG2

`COc1ccc2ccc(=O)n(CCN[C@H]3CC[C@H]4[C@@H](C3)OC(=O)N4c3ccc4c(n3)NC(=O)CO4)c2n1` [Compound 4, 1-(2-{[(3aS,6S,7aR)-2-oxo-3-{3-oxo-2H,3H,4H-pyrido[3,2-b][1,4]oxazin-6-yl}-octahydro-1,3-benzoxazol-6-yl]amino}ethyl)-7-methoxy-1,2-dihydro-1,8-naphthyridin-2-one] gave an MIC [1] of less than 1 µg/mL, an MIC [2] of less than 1 µg/mL and an MIC [3] of less than 1 µg/mL. For the same molecule, the MIC [4] was less than 1 µg/mL, the MIC (E. coli ATCC BAA-2452) was less than 1 µg/mL and the MIC (E. coli NCTC 13476) was less than 1 µg/mL. It also gave an MIC (E. coli MG1655) of less than 1 µg/mL, an MIC [5] of 1 to 10 µg/mL (≈ 1.97 to 19.7 µM) and an MIC [6] of less than 1 µg/mL. It also gave an MIC [7] of less than 1 µg/mL, an MIC [8] of 1 to 10 µg/mL (≈ 1.97 to 19.7 µM) and an MIC [9] of less than 1 µg/mL. The MIC [10] was less than 1 µg/mL, the “Fold increase in MIC, E. coli MG1655 S83L” value (E. coli MG1655 S83L) was 1 fold and the “Fold increase in MIC, E. coli MG1655 D87G” value (E. coli MG1655 D87G) was 1 fold. It also gave an IC50 [11] of 10 to 100 µg/mL (≈ 19.7 to 197 µM).

Reference: patent US10487093B2, “Heterocyclic compounds, in particular 2-oxo-4,4,5,5,6,6,7,7-octahydrobenzoxazole derivatives, and their use as antibacterial compounds” (priority 2016, dated 2019)
